Measurements reported in ChEMBL document CHEMBL1138549, “Synthesis of new 2-substituted pyrido[2,3-d]pyrimidin-4(1H)-ones and their antibacterial activity” (2009).
In brackets after ≈: the same amount, converted by molar mass. Activity calls are given as the source filed them. No cut-off for these calls is given here.

Assays:
Klebsiella pneumoniae = test: Antibacterial activity against Klebsiella pneumoniae MTCC 109 after 24 hrs by NCCLS M7-A5 method; format: functional; settings: MTCC 109, 24 h
Candida albicans = test: Antifungal activity against Candida albicans at 200 ug/ml; format: functional, organism-based
Escherichia coli = test: Antibacterial activity against Escherichia coli MTCC 722 after 24 hrs by NCCLS M7-A5 method; format: functional; settings: MTCC 722, 24 h
MCF7 = test: Cytotoxicity against human MCF7 cells up to 150 ug/ml; format: functional, cell-based
Bacillus subtilis = test: Antibacterial activity against Bacillus subtilis MTCC 441 after 24 hrs by NCCLS M7-A5 method; format: functional; settings: MTCC 441, 24 h
Aspergillus niger = test: Antifungal activity against Aspergillus niger at 200 ug/ml; format: functional, organism-based
Staphylococcus aureus = test: Antibacterial activity against Staphylococcus aureus MTCC 96 after 24 hrs by NCCLS M7-A5 method; format: functional; settings: MTCC 96, 24 h

SMILES | MIC (Klebsiella pneumoniae) [µg/mL] | Activity (Candida albicans) | MIC (Escherichia coli) [µg/mL] | Activity (MCF7) | MIC (Bacillus subtilis) [µg/mL] | Activity (Aspergillus niger) | MIC (Staphylococcus aureus) [µg/mL]
Cc1cc(C)c2c(n1)NC(c1ccco1)NC2=O (configuration not stated) | 12.5 (≈ 51.4 µM) | inactive | 25 (≈ 103 µM) | Not toxic | 3.25 (≈ 13.4 µM) | inactive | 12.5 (≈ 51.4 µM)
Cc1cc(C)c2c(=O)[nH]c(-c3cccc(C)c3C)nc2n1 | 50 (≈ 179 µM) | inactive | 12.5 (≈ 44.7 µM) | Not toxic | 12.5 (≈ 44.7 µM) | inactive | 12.5 (≈ 44.7 µM)
Cc1cc(C)c2c(=O)[nH]c(-c3cc(C)c(O)c(C)c3)nc2n1 | 12.5 (≈ 42.3 µM) | inactive | 6.25 (≈ 21.2 µM) | Not toxic | 12.5 (≈ 42.3 µM) | inactive | 6.25 (≈ 21.2 µM)
Cc1cc(C)c2c(n1)NC(c1cc(C)c(O)c(C)c1)NC2=O (configuration not stated) | 12.5 (≈ 42 µM) | inactive | 6.25 (≈ 21 µM) | Not toxic | 3.25 (≈ 10.9 µM) | inactive | 3.25 (≈ 10.9 µM)
COc1ccc(-c2nc3nc(C)cc(C)c3c(=O)[nH]2)c(O)c1 | 50 (≈ 168 µM) | inactive | 50 (≈ 168 µM) | Not toxic | 50 (≈ 168 µM) | inactive | 50 (≈ 168 µM)
Cc1cc(C)c2c(n1)NC(c1ccccc1O)NC2=O (configuration not stated) | 50 (≈ 186 µM) | inactive | 50 (≈ 186 µM) | Not toxic | 25 (≈ 92.8 µM) | inactive | 50 (≈ 186 µM)
COc1cc(-c2nc3nc(C)cc(C)c3c(=O)[nH]2)cc(OC)c1OC | 6.25 (≈ 18.3 µM) | inactive | 25 (≈ 73.2 µM) | Not toxic | 12.5 (≈ 36.6 µM) | inactive | 6.25 (≈ 18.3 µM)
COc1cc(-c2nc3nc(C)cc(C)c3c(=O)[nH]2)ccc1O | 50 (≈ 168 µM) | inactive | 50 (≈ 168 µM) | Not toxic | 25 (≈ 84.1 µM) | inactive | 12.5 (≈ 42 µM)
CC(=O)Oc1ccc(-c2nc3nc(C)cc(C)c3c(=O)[nH]2)cc1 | 50 (≈ 162 µM) | inactive | 25 (≈ 80.8 µM) | Not toxic | 25.5 (≈ 82.4 µM) | inactive | 25 (≈ 80.8 µM)
CC(=O)Oc1ccc(C2NC(=O)c3c(C)cc(C)nc3N2)cc1 (configuration not stated) | 50 (≈ 161 µM) | inactive | 25 (≈ 80.3 µM) | Not toxic | 6.25 (≈ 20.1 µM) | inactive | 12.5 (≈ 40.1 µM)
COc1cc(C2NC(=O)c3c(C)cc(C)nc3N2)cc(OC)c1OC (configuration not stated) | 1.25 (≈ 3.64 µM) | inactive | 3.25 (≈ 9.46 µM) | Not toxic | 3.25 (≈ 9.46 µM) | inactive | 1.25 (≈ 3.64 µM)
COc1ccc(C2NC(=O)c3c(C)cc(C)nc3N2)c(O)c1 (configuration not stated) | 25 (≈ 83.5 µM) | inactive | 50 (≈ 167 µM) | Not toxic | 25 (≈ 83.5 µM) | inactive | 25 (≈ 83.5 µM)
COc1ccc(-c2nc3nc(C)cc(C)c3c(=O)[nH]2)cc1OC | 12.5 (≈ 40.1 µM) | inactive | 12.5 (≈ 40.1 µM) | Not toxic | 6.25 (≈ 20.1 µM) | inactive | 6.25 (≈ 20.1 µM)
Cc1cc(C)c2c(n1)NC(c1cccc(C)c1C)NC2=O (configuration not stated) | 25 (≈ 88.9 µM) | inactive | 12.5 (≈ 44.4 µM) | Not toxic | 6.25 (≈ 22.2 µM) | inactive | 12.5 (≈ 44.4 µM)
Cc1cc(C)c2c(=O)[nH]c(-c3ccco3)nc2n1 | 50 (≈ 207 µM) | inactive | 25 (≈ 104 µM) | Not toxic | 12.5 (≈ 51.8 µM) | inactive | 25 (≈ 104 µM)
COc1ccc(C2NC(=O)c3c(C)cc(C)nc3N2)cc1 (configuration not stated) | 6.25 (≈ 22.1 µM) | inactive | 3.25 (≈ 11.5 µM) | Not toxic | 6.25 (≈ 22.1 µM) | inactive | 12.5 (≈ 44.1 µM)
Cc1cc(C)c2c(=O)[nH]c(-c3cccs3)nc2n1 | 50 (≈ 194 µM) | inactive | 12.5 (≈ 48.6 µM) | Not toxic | 12.5 (≈ 48.6 µM) | inactive | 25 (≈ 97.2 µM)
Cc1cc(C)c2c(n1)NC(c1cccs1)NC2=O (configuration not stated) | 25 (≈ 96.4 µM) | inactive | 12.5 (≈ 48.2 µM) | Not toxic | 6.25 (≈ 24.1 µM) | inactive | 12.5 (≈ 48.2 µM)
O=C(O)c1cn(C2CC2)c2cc(N3CCNCC3)c(F)cc2c1=O [CIPROFLOXACIN] | 0.78 (≈ 2.35 µM) | – | – | – | 0.78 (≈ 2.35 µM) | – | 0.39 (≈ 1.18 µM)
Cc1cc(C)c2c(=O)[nH]c(-c3cccc(Cl)c3Cl)nc2n1 | – | inactive | – | Not toxic | 50 (≈ 156 µM) | inactive | 100 (≈ 312 µM)
COc1ccc(C2NC(=O)c3c(C)cc(C)nc3N2)c(OC)c1 (configuration not stated) | 12.5 (≈ 39.9 µM) | inactive | 25 (≈ 79.8 µM) | Not toxic | 3.25 (≈ 10.4 µM) | inactive | 12.5 (≈ 39.9 µM)
Cc1cc(C)c2c(=O)[nH]c(-c3ccccc3O)nc2n1 | 100 (≈ 374 µM) | inactive | 50 (≈ 187 µM) | Not toxic | 50 (≈ 187 µM) | inactive | 50 (≈ 187 µM)
Cc1cc(C)c2c(n1)NC(c1cccc(Cl)c1Cl)NC2=O (configuration not stated) | 100 (≈ 310 µM) | inactive | – | Not toxic | 25 (≈ 77.6 µM) | inactive | 50 (≈ 155 µM)
COc1ccc(-c2nc3nc(C)cc(C)c3c(=O)[nH]2)c(OC)c1 | 50 (≈ 161 µM) | inactive | 25 (≈ 80.3 µM) | Not toxic | 12.5 (≈ 40.1 µM) | inactive | 25 (≈ 80.3 µM)
COc1cc(C2NC(=O)c3c(C)cc(C)nc3N2)ccc1O (configuration not stated) | 50 (≈ 167 µM) | inactive | 50 (≈ 167 µM) | Not toxic | 12.5 (≈ 41.8 µM) | inactive | 1.25 (≈ 4.18 µM)
COc1ccc(-c2nc3nc(C)cc(C)c3c(=O)[nH]2)cc1 | 25 (≈ 88.9 µM) | inactive | 12.5 (≈ 44.4 µM) | Not toxic | 25 (≈ 88.9 µM) | inactive | 12.5 (≈ 44.4 µM)
COc1ccc(C2NC(=O)c3c(C)cc(C)nc3N2)cc1OC (configuration not stated) | 12.5 (≈ 39.9 µM) | inactive | 6.25 (≈ 19.9 µM) | Not toxic | 3.25 (≈ 10.4 µM) | inactive | 3.25 (≈ 10.4 µM)
